A word on the melting point: it is the temperature, or range, at which the solid turns liquid.

One series deals with SKOV3 cells. The series can be described thus: Serum starved proliferation assay on the ovarian carcinoma SKOV3 cells (C3). Format: cell-based. To be noted: EGF stimulated (100 ng/ml, 72 hours, serum free) or 72 hours with compounds, MTT cell viability assay; for IC50: Homo sapiens, SK-OV-3, 72 h, read-out: SKOV3 cell (C3): pIC50 (converted). In outline: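 SKOV3 cells grown 24 h in 10% FCS, then treated with compound under serum-free conditions (37 °C, 5% CO2) and stimulated 72 h with EGF at 100 ng/ml final; read-out by MTT viability. Alternative format: compound for 72 h after the same 24 h FCS step, also by MTT.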
(In general: Formazan colour is commonly taken as a measure of viable cells.)

Another series concerns the target EGFR (Homo sapiens, UniProt P00533). The series can be described thus: In vitro inhibition of EGFR, Flash Plate or glass-fiber filter technology (C2). More on the design: 0.5 μg EGFR-kinase domain/well. To be noted: EGFR-kinase domain, 5.0 μM unlabeled ATP, read-out: Kinase activity.(C2): pIC50 (converted). Format: biochemical. In outline: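 EGFR kinase domain (0.5 μg/well) phosphorylated poly(GT) with 5.0 μM ATP plus AT^33P, dose response 1·10^−6 to 1·10^−10 M. Flash Plate: biotin-poly(GT), Tris pH 8.0, 30° C, 60 min, scintillation counting. Filter: Tris pH 7.5 with MnCl2, 25° C, 10 min, 33P counted on glass-fiber filter by phosphorimaging.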

Each structure is given as a SMILES string.

Chain of EGFR (P00533 712-979 limits assumed): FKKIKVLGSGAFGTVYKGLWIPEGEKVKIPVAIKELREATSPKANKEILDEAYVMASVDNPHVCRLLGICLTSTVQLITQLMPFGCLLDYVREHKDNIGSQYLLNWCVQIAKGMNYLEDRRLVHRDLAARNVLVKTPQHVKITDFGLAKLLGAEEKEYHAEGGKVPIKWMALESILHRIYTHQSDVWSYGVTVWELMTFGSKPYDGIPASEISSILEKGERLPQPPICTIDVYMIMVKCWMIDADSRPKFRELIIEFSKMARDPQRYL

`COc1cc2ncnc3c2cc1OCCNC(=O)C(C)(C)NC(=O)Cc1ccc(Cl)cc1N3` [Compound 65, 4,6-ethanediylidene-8H-pyrimido[4,5-b][6,1,9,12]benzoxatriazacyclohexadecine-11,14-dione, 18-chloro-9,10,12,13,15,20-hexahydro-21-methoxy-12,12-dimethyl-] showed a melting point of 285 °C. Also, the IC50 in the series with SKOV3 cells is 20 nM. Also, the IC50 on EGFR is 12.6 nM.
In the same order, the values of `COc1cc2ncnc3c2cc1OCCNC(=O)C(C(C)C)NC(=O)Cc1ccc(Cl)cc1N3` (centres unmarked) [Compound 66, 4,6-ethanediylidene-8H-pyrimido[4,5-b][6,1,9,12]benzoxatriazacyclohexadecine-11,14-dione, 18-chloro-9,10,12,13,15,20-hexahydro-21-methoxy-12-(1-methylethyl)-] are 335 °C, 10 nM and 79.4 nM.
In the same order, the values of `COc1cc2ncnc3c2cc1OCCNC(=O)CNC(=O)Cc1ccc(Cl)cc1N3` [Compound 69, 4,6-ethanediylidene-8H-pyrimido[4,5-b][6,1,9,12]benzoxatriazacyclohexadecine-11,14-dione, 18-chloro-9,10,12,13,15,20-hexahydro-21-methoxy-] are 292 °C, 63.1 nM and 50.1 nM.
On the same counts, the results for `COc1cc2ncnc3c2cc1OCCCNC(=O)CCNCc1ccc(Cl)cc1N3` [Compound 70, 4,6-ethanediylidenepyrimido[4,5-b][6,1,10,14]benzoxatriazacycloheptadecin-12(13H)-one, 19-chloro-8,9,10,11,14,15,16,21-octahydro-22-methoxy-] are 236.4 to 237.3 °C, 3160 nM and 10 nM.
`COc1cc2ncnc3c2cc1OCCNC(=O)C1CCCN1Cc1ccc(Cl)cc1N3` (centres unmarked) [Compound 71, 4,6-ethanediylidenepyrimido[4,5-b]pyrrolo[2,1-k][6,1,9,12]benzoxatriazacyclopentadecin-11(8H)-one, 19-chloro-9,10,11a,12,13,14,16,21-octahydro-22-methoxy-]: the melting point was in the range of 261.2 to 265 °C. The “SKOV3 cell (C3): pIC50” value in the series with SKOV3 cells worked out at 5.5. Besides, the IC50 at EGFR is 31.6 nM.
Turning to `COc1cc2ncnc3c2cc1OCCNC(=O)CN(C)Cc1ccc(Cl)cc1N3` [Compound 72, 4,6-ethanediylidenepyrimido[4,5-b][6,1,9,12]benzoxatriazacyclopentadecin-11(8H)-one, 17-chloro-9,10,12,13,14,19-hexahydro-20-methoxy-13-methyl-], the melting point is 288.5 to 290.5 °C. The IC50 in the series with SKOV3 cells was 10000 nM. Further, on EGFR, the IC50 is 158 nM.
As for `COc1cc2ncnc3c2cc1OCCCNC(=O)C1CCCN1Cc1ccc(Cl)cc1N3` (centres unmarked) [Compound 77, 4,6-ethanediylidene-12H-pyrimido[4,5-b]pyrrolo[2,1-l][6,1,10,13]benzoxatriazacyclohexadecin-12-one, 20-chloro-8,9,10,11,12a,13,14,15,17,22-decahydro-23-methoxy-], the melting point lay in the range of 129.8 to 132.8 °C.
As to `COc1cc2ncnc3c2cc1OCCCNC(=O)C1CCCN1Cc1ccc(Cl)cc1N3` (centres unmarked) [Compound 84, 4,6-ethanediylidene-12H-pyrimido[4,5-b]pyrrolo[2,1-l][6,1,10,13]benzoxatriazacyclohexadecin-12-one, 20-chloro-8,9,10,11,12a,13,14,15,17,22-decahydro-23-methoxy-], the melting point is 231.9 to 232.8 °C.
Same read-out and setting: to `COc1cc2ncnc3c2cc1OCCNC(=O)C1CCN(CC1)Cc1ccc(Cl)cc1N3` [Compound 87, 8H-4,6-ethanediylidene-12,15-ethanopyrimido[4,5-b][6,1,9,14]benzoxatriazacycloheptadecin-11(12H)-one, 19-chloro-9,10,13,14,16,21-hexahydro-24-methoxy-] belongs 246.6 to 248.2 °C; to `COc1cc2ncnc3c2cc1OCCNC(=O)C(C)N(C)Cc1ccc(Cl)cc1N3` (centres unmarked) [Compound 89, 4,6-ethanediylidenepyrimido[4,5-b][6,1,9,12]benzoxatriazacyclopentadecin-11(8H)-one, 17-chloro-9,10,12,13,14,19-hexahydro-20-methoxy-12,13-dimethyl-], 265 °C; to `CCN1CC(=O)NCCOc2cc3c(ncnc3cc2OC)Nc2cc(Cl)ccc2C1` [Compound 90, 4,6-ethanediylidenepyrimido[4,5-b][6,1,9,12]benzoxatriazacyclopentadecin-11(8H)-one, 17-chloro-13-ethyl-9,10,12,13,14,19-hexahydro-20-methoxy-], 261.1 to 262 °C.
Still for that read-out and setting: to `COc1cc2ncnc3c2cc1OCCNC(=O)C(CO)NCc1ccc(Cl)cc1N3` (centres unmarked) [Compound 91, 4,6-ethanediylidenepyrimido[4,5-b][6,1,9,12]benzoxatriazacyclopentadecin-11(8H)-one, 17-chloro-9,10,12,13,14,19-hexahydro-12-(hydroxymethyl)-20-methoxy-] belongs 276.3 to 277.4 °C; to `COc1cc2ncnc3c2cc1OCCCNC(=O)CN1CCN(CC1)Cc1ccc(Cl)cc1N3` [Compound 93, 4,6-ethanediylidene-14,17-ethanopyrimido[4,5-b][6,1,10,13,16]benzoxatetraazacyclononadecin-12(13H)-one, 21-chloro-8,9,10,11,15,16,18,23-octahydro-26-methoxy-], 286.8 to 287.6 °C.
As for `COc1cc2ncnc3c2cc1OCCCNC(=O)C1CCCN(Cc2ccc(Cl)cc2N3)C1` (centres unmarked) [Compound 95, 12H-4,6-ethanediylidene-13,17-methanopyrimido[4,5-b][6,1,10,16]benzoxatriazacyclononadecin-12-one, 21-chloro-8,9,10,11,13,14,15,16,18,23-decahydro-25-methoxy-], the melting point lay within 240.1 to 242.8 °C.
Consider `COc1cc2ncnc3c2cc1OCCCC(=O)NCCCC(=O)NCc1ccc(Cl)cc1N3` [Compound 154, 4,6-ethenopyrimido[4,5-b][6,1,11,16]benzoxatriazacyclononadecine-11,16(8H,17H)-dione, 21-chloro-9,10,12,13,14,15,18,23-octahydro-24-methoxy-], for which the IC50 in the series with SKOV3 cells is 2510 nM; on EGFR it was 39.8 nM.
In the same order, the values of `COc1cc2ncnc3c2cc1OCCCC(=O)NCCC(=O)NCc1ccc(Cl)cc1N3` [Compound 155, 4,6-etheno-8H-pyrimido[4,5-b][6,1,11,15]benzoxatriazacyclooctadecine-11,15(12H,16H)-dione, 20-chloro-9,10,13,14,17,22-hexahydro-23-methoxy-] are 1000 nM and 316 nM.
With `COc1cc2ncnc3c2cc1OCC(=O)NCCCC(=O)NCc1ccccc1N3` [Compound 158, 4,6-ethanediylidenepyrimido[4,5-b][6,1,9,14]benzoxatriazacycloheptadecine-9,14(8H,15H)-dione, 10,11,12,13,16,21-hexahydro-22-methoxy-], the IC50 in the series with SKOV3 cells is 10000 nM; at EGFR it was 5010 nM.
In the same order, the values of `COc1cc2ncnc3c2cc1OCC(=O)N(C)CC(=O)NCc1ccc(Cl)cc1N3` [Compound 159, 4,6-ethanediylidenepyrimido[4,5-b][6,1,9,12]benzoxatriazacyclopentadecine-9,12(8H,13H)-dione, 17-chloro-10,11,14,19-tetrahydro-20-methoxy-10-methyl-] are 2000 nM and 316 nM.
On to `COc1cc2ncnc3c2cc1OCC(=O)NCC(=O)NCCc1ccc(Cl)cc1N3` [Compound 160, 4,6-ethanediylidene-8H-pyrimido[4,5-b][6,1,9,12]benzoxatriazacyclohexadecine-9,12-dione, 18-chloro-10,11,13,14,15,20-hexahydro-21-methoxy-], for which the results for the IC50 in the series on SKOV3 cells and at EGFR were 631 nM and 63.1 nM, respectively.
In the same order, the values of `COc1cc2ncnc3c2cc1OCC(=O)NCCCC(=O)NCCc1ccc(Cl)cc1N3` [Compound 161, 4,6-ethanediylidene-8H-pyrimido[4,5-b][6,1,9,14]benzoxatriazacyclooctadecine-9,14-dione, 20-chloro-10,11,12,13,15,16,17,22-octahydro-23-methoxy-] are 1260 nM and 63.1 nM.
On the same counts, the results for `COc1cc2ncnc3c2cc1OCCCCC(=O)NCCC(=O)NCc1ccc(Cl)cc1N3` [Compound 162, 4,6-ethanediylidenepyrimido[4,5-b][6,1,12,16]benzoxatriazacyclononadecine-12,16(13H,17H)-dione, 21-chloro-8,9,10,11,14,15,18,23-octahydro-24-methoxy-] are 50.1 nM and 158 nM.
`COc1cc2ncnc3c2cc1OCCCCC(=O)NCCCC(=O)NCc1ccc(Cl)cc1N3` [Compound 163, 4,6-ethanediylidene-8H-pyrimido[4,5-b][6,1,12,17]benzoxatriazacycloeicosine-12,17(18H)-dione, 22-chloro-9,10,11,13,14,15,16,19,24-nonahydro-25-methoxy-]: the IC50 in the series with SKOV3 cells is 398 nM; at EGFR, 100 nM.
With `COc1cc2ncnc3c2cc1OCC(=O)N(C)CC(=O)NCCc1ccc(Cl)cc1N3` [Compound 164, 4,6-ethanediylidene-8H-pyrimido[4,5-b][6,1,9,12]benzoxatriazacyclohexadecine-9,12-dione, 18-chloro-10,11,13,14,15,20-hexahydro-21-methoxy-10-methyl-], the IC50 in the series on SKOV3 cells is 158 nM; on EGFR, 501 nM.

The values above are taken from patent US8394786B2, “Quinazoline derivatives” (Janssen Pharmaceutica N.V., priority 2003, dated 2013).
